Experimental data from US6352960B1, “Controlling agent for agricultural or horticultural bacterial disease” (Meiji Seika Kaisha, Ltd., priority 1998, dated 2002).
Where a name gives a salt, the structure may show the parent alone.

Key:
[1] = tested on: Celery cabbage soft rot; experiment: Controlling effect on Celery cabbage soft rot, field test; format: in vivo; conditions: sprayed 3 times at 7-day intervals
Protocol: (§1) Preventive value=(1−disease severity of treated lot/disease severity of non-treated lot)×100
(§2) (Disease severity may be replaced by degree of damage or ratio of damage.)
Commercially available Agrepto wettable powder containing 25% of streptomycin sulfate (20% as streptomycin) or commercially available Iminoctadine ABS salt [trade name: Bellkute wettable powder (40%)] was diluted to a predetermined concentration and tested. The preparations produced according to Preparation Examples 1 and 3 were also diluted to predetermined concentrations. In early August, Celery cabbages were sown in 5.2 m^2 per lot in triplicate. From 20 September when the plant reached 10-leaf stage, the predetermined agents were continually sprayed 3 times with intervals of 7 days. In late October, the disease severity and degree of damage of Celery cabbage soft rot were investigated using 4-rank indices.
1: Only a portion of outer leaves damaged;
2: A portion of outer leaves and head portion damaged; and
3: Most part of head portion damaged.
Degree of damage=Σ(Index×the number of individuals)÷(the number of individuals searched×3)×100

[2] = tested on: citrus canker bacterium (Xanthomonas campestris pv. citri); experiment: in vitro antibacterial test on PDA culture medium; format: cell-based; design: key to growth of bacteria: +++: Colonies grew well; ++: Growth was slightly suppressed; +: Growth was strongly suppressed but proliferation was observed; −: No proliferation was observed; conditions: for growth of bacteria: 28° C., after 3 days
Protocol: (§3) Each agent was dissolved in sterilized water and added to PDA culture medium (Nissui Seiyaku Co., Ltd.) and Japanese apricot canker bacterium (Pseudomonas syringae pv. morsprunorum), vegetables' soft rot disease bacterium (Erwinia carotovora sub-sp. cartovora), and citrus canker bacterium (Xanthomonas campestris pv. citri) were inoculated.
(§4) The Japanese apricot canker bacterium was cultivated at 21° C., the vegetables' soft rot disease bacterium and citrus canker bacterium were cultivated at 28° C. After 3 days from the start of cultivation, the growth of bacteria was monitored.

[3] = tested on: vegetables' soft rot disease bacterium (Erwinia carotovora sub-sp. cartovora); experiment: in vitro antibacterial test on PDA culture medium; format: cell-based; design: key to growth of bacteria: +++: Colonies grew well; ++: Growth was slightly suppressed; +: Growth was strongly suppressed but proliferation was observed; −: No proliferation was observed; conditions: for growth of bacteria: 28° C., after 3 days
Protocol: as §3, §4

[4] = tested on: Japanese apricot canker bacterium (Pseudomonas syringae pv. morsprunorum); experiment: in vitro antibacterial test on PDA culture medium; format: cell-based; design: key to growth of bacteria: +++: Colonies grew well; ++: Growth was slightly suppressed; +: Growth was strongly suppressed but proliferation was observed; −: No proliferation was observed; conditions: for growth of bacteria: 21° C., after 3 days
Protocol: as §3, §4

[5] = tested on: genus Xanthomonas; conditions: from Japanese Patent Publication No. Sho 43-27335; cited from earlier work
[6] = tested on: genus Pseudomonas; conditions: from Japanese Patent Publication No. Sho 43-27335; cited from earlier work
[7] = tested on: Japanese apricot bacterial canker; experiment: Controlling effect on Japanese apricot bacterial canker (1), field trees, spray; format: in vivo; conditions: sprayed four times at 10-day intervals
Protocol: as §1
Commercially available Agrepto wettable powder containing 25% of streptomycin sulfate (20% as streptomycin) or commercially available Iminoctadine ABS salt [trade name: Bellkute wettable powder (40%)] was diluted to a predetermined concentration and tested. Also, the preparation produced according to Preparation Example 2 was diluted to a predetermined concentration and tested.
Young 5-year old Japanese apricot trees which frequently suffered from Japanese apricot bacterial canker in the preceding year, were tested. Predetermined agents were continually sprayed four times with intervals of 10 days starting from early April. In May, the disease severity of Japanese apricot bacterial canker was searched on 100 fruits per tree for total 5 trees in each lot and the results were evaluated by 5-rank indices.
The damaged fruits were searched and disease severity and preventive value were calculated using the indices and equation below.
2: Medium=6 to 15 lesions
6: Extreme=31 or more lesions or with cracks
Disease severity=Σ(Index×The number of damaged fruits per degree)÷(6×The number of tested fruits)×100

[8] = tested on: Japanese apricot canker bacterium (Pseudomonas syringae pv. morsprunorum); experiment: Controlling effect on Japanese apricot bacterial canker (2), potted seedlings, spray inoculation; format: in vivo; conditions: leaf spray before inoculation, after 7 days
Protocol: as §1
Japanese apricot seedlings rested for the winter season in the open field were cut to the height of 60 cm and transplanted to 1/5000 a Wagner pots and allowed to sprout and develop leaves in a greenhouse were tested. After giving fine bruises to the leaves with Carborandum, water was sprayed sufficiently to flow away the Carborandum. After air drying, the agents diluted to predetermined concentrations with water were sprayed onto the leaves, which were air dried again. Japanese apricot canker bacterium (Pseudomonas syringae pv. morsprunorum) preliminarily cultivated in PPG medium (200 g of potato, 3 g of disodium phosphate (dodecahydrate), 0.5 g of dikalium phosphate, 5 g of peptone, 3 g of sodium chloride, 5 g of glucose, 1 L of distilled water) was inoculated by spraying together with the medium. The inoculated plants were placed under controlled humid conditions (temperature 20° C., humidity 99% to 100%) for 40 hours and then transferred to a greenhouse to allow the disease to emerge. After 7 days, the lesion area in each lot was measured and disease severity and preventive value were calculated according to the following indices.
1: Several lesions on the leaves of one branch;
2: The damaged area was less than ¼ of the total area of the leaves on one branch;
3: The damaged area was from ¼ to less than ½ of the total area of the leaves on one branch;
4: The damaged area was from ½ to less than ⅔ of the total area of the leaves on one branch; and
5: The damaged area was ⅔ or more of the total area of the leaves on one branch.
Disease severity=Σ(Index×The number of data)÷(Total number of data×5)×100

[9] = tested on: citrus canker bacterium (Xanthomonas campestris pv. citri); experiment: Controlling effect on citrus canker, pot-grown Watson pomelo leaves; format: in vivo; conditions: 20 leaves, after 1 month
Protocol: as §1, §2
Commercially available Agrepto wettable powder containing 25% of streptomycin sulfate (20% as streptomycin) or commercially available Iminoctadine ABS salt [trade name: Bellkute wettable powder (40%)] was diluted to a predetermined concentration and tested. The preparations produced according to Preparation Examples 2 and 4 were also diluted to predetermined concentrations. 20 new leaves of pot-grown Watson pomelo were tested for each of the preparations. After wounding the leaves with a needle, each predetermined agent solution was sprayed thereon and the leaves were air dried. Then, citrus canker bacterium (Xanthomonas campestris pv. citri) was inoculated with the density of 1×10^6 cells. Thereafter, the trees were put into controlled cultivation in a greenhouse. After 1 month, the emergence of citrus canker was investigated.

## CCn1cc(C(=O)O)c(=O)c2cc3c(cc21)OCO3 [Oxolinic acid, oxolinic acid]
[1]; 100 ppm
  Degree of damage: 3.3
  Preventive value: 85
  The number of individuals damaged: 4
[2]; 1 ppm in PDA medium
  growth of bacteria: +++
[2]; 10 ppm in PDA medium
  growth of bacteria: ++
[3]; 1 ppm in PDA medium
  growth of bacteria: −
[3]; 10 ppm in PDA medium
  growth of bacteria: −
[4]; 1 ppm in PDA medium
  growth of bacteria: ++
[4]; 10 ppm in PDA medium
  growth of bacteria: −

## N=C(N)NCCCCCCCCCCNCCCCCCCCCCNC(=N)N.O=S(=O)(O)O [bis (10-guanidinodecyl) amine sulfate]
[5]
  in vitro antibacterial activity against plant pathogenic bacteria: revealed to have in vitro antibacterial activity
[6]
  in vitro antibacterial activity against plant pathogenic bacteria: revealed to have in vitro antibacterial activity

## Cl.N=C(N)NCCCCCCCCCCCCNCCCCCCCCCCCCNC(=N)N [bis (12-guanidinododecyl) amine hydrochloride]
[5]
  in vitro antibacterial activity against plant pathogenic bacteria: revealed to have in vitro antibacterial activity
[6]
  in vitro antibacterial activity against plant pathogenic bacteria: revealed to have in vitro antibacterial activity

## N=C(N)NCCCCCCCCNCCCCCCCCNC(=N)N [Iminoctadine ABS salt, bis(8-guanidinooctyl)amine]
[7]; 200 ppm
  Disease severity: 1.2
  Preventive value: 68
  The number of damaged fruits: 18
[1]; 200 ppm
  Degree of damage: 6.4
  Preventive value: 71
  The number of individuals damaged: 12
[8]; 200 ppm
  Disease severity: 19
  Preventive value: 73
[9]; 50 ppm
  Preventive value: 55
  Ratio of suffering leaves: 45
  The number of suffering leaves: 9
[9]; 100 ppm
  Preventive value: 75
  Ratio of suffering leaves: 25
  The number of suffering leaves: 5
[9]; 400 ppm
  Preventive value: 85
  Ratio of suffering leaves: 15
  The number of suffering leaves: 3
[2]; 1 ppm in PDA medium
  growth of bacteria: +++
[2]; 10 ppm in PDA medium
  growth of bacteria: +++
[2]; 100 ppm in PDA medium
  growth of bacteria: +++
[2]; even added at 100 ppm
  suppression of growth in vitro: did not suppress the growth
[3]; 1 ppm in PDA medium
  growth of bacteria: +++
[3]; 10 ppm in PDA medium
  growth of bacteria: +++
[3]; 100 ppm in PDA medium
  growth of bacteria: +++
[3]; even added at 100 ppm
  suppression of growth in vitro: did not suppress the growth
[4]; 1 ppm in PDA medium
  growth of bacteria: +++
[4]; 10 ppm in PDA medium
  growth of bacteria: +++
[4]; 100 ppm in PDA medium
  growth of bacteria: ++
[4]; even added at 100 ppm
  suppression of growth in vitro: did not suppress the growth

## [H]/N=C(/N)N[C@H]1[C@H](O)[C@@H](O)[C@H](O[C@@H]2O[C@@H](C)[C@](O)(C=O)[C@H]2O[C@@H]2O[C@@H](CO)[C@H](O)[C@@H](O)[C@@H]2NC)[C@@H](N/C(N)=N\[H])[C@@H]1O [Streptomycin sulfate, streptomycin sulfate]
[7]; 125 ppm
  Disease severity: 1.6
  Preventive value: 57
  The number of damaged fruits: 23
[1]; 125 ppm
  Degree of damage: 4.6
  Preventive value: 79
  The number of individuals damaged: 10
[8]; 125 ppm
  Disease severity: 24
  Preventive value: 67
[9]; 62.5 ppm
  Preventive value: 60
  Ratio of suffering leaves: 40
  The number of suffering leaves: 8
[9]; 125 ppm
  Preventive value: 80
  Ratio of suffering leaves: 20
  The number of suffering leaves: 4
[9]; 500 ppm
  Preventive value: 95
  Ratio of suffering leaves: 5
  The number of suffering leaves: 1
[2]; 1 ppm in PDA medium
  growth of bacteria: ++
[2]; 10 ppm in PDA medium
  growth of bacteria: +
[2]; 100 ppm in PDA medium
  growth of bacteria: −
[3]; 1 ppm in PDA medium
  growth of bacteria: +
[3]; 10 ppm in PDA medium
  growth of bacteria: −
[3]; 100 ppm in PDA medium
  growth of bacteria: −
[4]; 1 ppm in PDA medium
  growth of bacteria: ++
[4]; 10 ppm in PDA medium
  growth of bacteria: +
[4]; 100 ppm in PDA medium
  growth of bacteria: −

## N=C(N)NCCCCCCCCNCCCCCCCCNC(=N)N.O=S(=O)(O)O [bis (8-guanidiooctyl) amine sulfate]
[5]
  in vitro antibacterial activity against plant pathogenic bacteria: no activity
[6]
  in vitro antibacterial activity against plant pathogenic bacteria: no activity
